Reference: ChEMBL document CHEMBL6083233, “Modified (2'-deoxy)adenosines activate autophagy primarily through AMPK/ULK1-dependent pathway” (2024)
Activity calls are given as the source filed them. No cut-off for these calls is given here.

Assays:
[1] = Activation of autophagy in human SH-SY5Y cells expressing GFP-LC3-RFP assessed as green-to-red signal ratio at 250 mkM relative to control; assay type: functional; details: at 250 µM
[2] = Activation of autophagy in human SH-SY5Y cells expressing GFP-LC3-RFP assessed as green-to-red signal ratio at 25 mkM relative to control; assay type: functional; details: at 25 µM
[3] = Activation of autophagy in human SH-SY5Y cells expressing GFP-LC3-RFP assessed as green-to-red signal ratio at 2.5 mkM relative to control; assay type: functional; details: at 2.5 µM
[4] = test system: SH-SY5Y; assay: Activation of autophagy in human SH-SY5Y cells expressing GFP-LC3-RFP assessed as increase in LC3-II level at 25 to 250 mkM by Western blot analysis; assay type: functional, cell-based; details: dose 25-250 mkM
[5] = test system: SH-SY5Y; assay: Activation of mitophagy in human SH-SY5Y cells expressing GFP-LC3-RFP assessed as increase in phospho-ubiquitin level at 25 to 250 mkM by Western blot analysis; assay type: functional, cell-based; details: dose 25-250 mkM
[6] = test system: SH-SY5Y; assay: Effect on AKT phosphorylation at T308 in human SH-SY5Y cells expressing GFP-LC3-RFP at 25 to 250 mkM by Western blot analysis; assay type: functional, cell-based; details: dose 25-250 mkM
[7] = test system: SH-SY5Y; assay: Effect on TSC2 phosphorylation in human SH-SY5Y cells expressing GFP-LC3-RFP at 25 to 250 mkM by Western blot analysis; assay type: functional, cell-based; details: dose 25-250 mkM
[8] = test system: SH-SY5Y; assay: Activation of autophagy in human SH-SY5Y cells expressing GFP-LC3-RFP assessed as increase in AMPK phosphorylation by Western blot analysis; assay type: functional, cell-based; details: dose 25-250 mkM
[9] = test system: SH-SY5Y; assay: Activation of autophagy in human SH-SY5Y cells expressing GFP-LC3-RFP assessed as increase in ULK1 phosphorylation at S555 at 25 to 250 mkM by Western blot analysis; assay type: functional, cell-based; details: dose 25-250 mkM
[10] = test system: SH-SY5Y; assay: Activation of autophagy in human SH-SY5Y cells expressing GFP-LC3-RFP assessed as increase in Beclin-1 level at 25 to 250 mkM by Western blot analysis; assay type: functional, cell-based; details: dose 25-250 mkM
[11] = test system: SH-SY5Y; assay: Activation of autophagy in human SH-SY5Y cells expressing SIRT1-/-/GFP-LC3-RFP assessed as increase in green-to-red signal ratio at 25 to 250 mkM; assay type: functional, cell-based; details: dose 25-250 mkM
[12] = test system: SH-SY5Y; assay: Activation of autophagy in human SH-SY5Y cells expressing AMPK-/-/GFP-LC3-RFP assessed as increase in green-to-red signal ratio at 25 to 250 mkM; assay type: functional, cell-based; details: dose 25-250 mkM
[13] = test system: SH-SY5Y; assay: Activation of autophagy in human SH-SY5Y cells expressing GFP-LC3-RFP assessed as increase in AMPK phosphorylation at 25 to 250 mkM by Western blot analysis; assay type: functional, cell-based; details: dose 25-250 mkM
[14] = test system: SH-SY5Y; assay: Downregulation of ULK phosphorylation at S757 in human SH-SY5Y cells expressing GFP-LC3-RFP at 25 to 250 mkM by Western blot analysis; assay type: functional, cell-based; details: dose 25-250 mkM
[15] = test system: SH-SY5Y; assay: Downregulation of 4E-BP1 phosphorylation in human SH-SY5Y cells expressing GFP-LC3-RFP at 25 to 250 mkM by Western blot analysis; assay type: functional, cell-based; details: dose 25-250 mkM
[16] = test system: SH-SY5Y; assay: Activation of autophagy in human SH-SY5Y cells expressing GFP-LC3-RFP assessed as increase in LC3-II level at 250 mkM by Western blot analysis; assay type: functional, cell-based

Structure (SMILES): Nc1ncnc2c1[nH]c(=O)n2[C@H]1C[C@H](O)[C@@H](CO)O1
- Ratio [1]: 5.41%
- Ratio [2]: 1.85%
- Ratio [3]: 1.85%
- Activity [4]: Active; Exhibited Moderate Activity
- Activity [5]: inactive
- Activity [6]: Active
- Activity [7]: inactive
- Activity [8]: Dose-dependent-effect
- Activity [9]: Active
- Activity [10]: Active
- Activity [11]: Active
- Activity [12]: Active

Structure (SMILES): Nc1nc2c([nH]c(=O)n2[C@H]2C[C@H](O)[C@@H](CO)O2)c(=O)[nH]1
- Ratio [1]: 1.94%
- Ratio [2]: 1.51%
- Ratio [3]: -0.68%

Structure (SMILES): Nc1ncnc2c1[nH]c(=O)n2[C@@H]1O[C@H](CO)[C@@H](O)[C@H]1O
- Ratio [1]: 5.71%
- Ratio [2]: 3.62%
- Ratio [3]: 1.31%
- Activity [4]: Active; Exhibited Moderate Activity
- Activity [5]: inactive
- Activity [6]: Active
- Activity [7]: inactive
- Activity [8]: Dose-dependent-effect
- Activity [9]: Active
- Activity [10]: Active
- Activity [11]: Active
- Activity [12]: Active

Structure (SMILES): O=c1[nH]c2c(ncn3ccnc23)n1[C@@H]1O[C@H](CO)[C@@H](O)[C@H]1O
- Ratio [1]: -0.79%
- Ratio [2]: -1.76%
- Ratio [3]: -1.32%

Structure (SMILES): CCC(CC)COC(=O)[C@@H](C)N[P@](=O)(OC[C@H]1O[C@@H](n2cnc3c(NC)ncnc32)[C@H](O)[C@@H]1O)Oc1ccccc1
- Ratio [1]: 7.26%
- Ratio [2]: 0.44%
- Ratio [3]: -3.79%
- Activity [4]: Active; Exhibited Higher Activity Compared To Parent Compound
- Activity [5]: inactive
- Activity [6]: inactive
- Activity [13]: Active
- Activity [9]: Active
- Activity [14]: Active; Result Provides Indirect Evidence Of Mtor Inhibition
- Activity [15]: Active; Result Provides Indirect Evidence Of Mtor Inhibition
- Activity [11]: Active
- Activity [12]: Active

Structure (SMILES): Nc1ncnc2c1nc(Br)n2COCCO
- Ratio [1]: -0.4%
- Ratio [2]: 1.28%
- Ratio [3]: 1.31%

Structure (SMILES): CNc1ncnc2c1ncn2[C@@H]1O[C@H](CO)[C@@H](O)[C@H]1O
- Ratio [1]: 3.36%
- Ratio [2]: -1.43%
- Ratio [3]: -1.2%
- Activity [16]: Active
- Activity [4]: Not active; Exhibited Weakest Activity Among Tested Compounds

Structure (SMILES): Nc1ncnc2c1nc(Br)n2[C@H]1C[C@H](O)[C@@H](CO)O1
- Ratio [1]: 0.2%
- Ratio [2]: 3.16%
- Ratio [3]: 1.78%

Structure (SMILES): Nc1ncnc2c1[nH]c(=O)n2COCCO
- Ratio [1]: 2.59%
- Ratio [2]: -2.79%
- Ratio [3]: -0.47%
- Activity [16]: Active
- Activity [4]: Not active; Exhibited Weakest Activity Among Tested Compounds
